Consider two compounds from patent US11028074B2, “CD73 inhibitors” (Eli Lilly and Company, priority 2018, dated 2021).

One may read the pEC50 as −log10 of the EC50, conventionally taken in molar units. The term pIC50 denotes the negative decadic logarithm of the IC50, by convention in mol/L. Lower therefore signals a high IC50.

The test system of assay [1] is EG7 (lymphoma), MC38 (colon), AT-3 (breast) and B16F10 (melanoma) tumor cells. Conditions: syngeneic mice injected subcutaneously with EG7, MC38, AT-3 and B16F10 tumor cells; cited from earlier work.
For assay [2], the target named is T1, CD73 (Homo sapiens, UniProt P21589).
T1 sequence (P21589 27-549): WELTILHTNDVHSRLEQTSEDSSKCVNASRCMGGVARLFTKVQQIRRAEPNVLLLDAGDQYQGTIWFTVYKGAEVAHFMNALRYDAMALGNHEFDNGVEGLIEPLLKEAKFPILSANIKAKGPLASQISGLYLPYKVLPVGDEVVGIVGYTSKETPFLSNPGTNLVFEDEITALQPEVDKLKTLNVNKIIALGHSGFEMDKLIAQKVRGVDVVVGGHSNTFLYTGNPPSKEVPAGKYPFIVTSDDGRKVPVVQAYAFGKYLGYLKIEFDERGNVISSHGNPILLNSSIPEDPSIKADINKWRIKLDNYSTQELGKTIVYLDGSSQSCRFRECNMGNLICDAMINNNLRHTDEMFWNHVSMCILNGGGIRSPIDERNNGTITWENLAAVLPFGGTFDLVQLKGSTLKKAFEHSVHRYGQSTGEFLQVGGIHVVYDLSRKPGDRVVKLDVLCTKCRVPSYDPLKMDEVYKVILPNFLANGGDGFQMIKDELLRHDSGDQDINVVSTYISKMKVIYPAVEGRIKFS
Nature of the assay: LC/MS Based Assay for Measuring CD73 Activity in Human Serum. The format is biochemical. Details: from tissue; host or cells: normal human serum. Conditions: concentrations corrected with the fraction unbound, read-out: EC50, inhibition of CD73 activity in human serum. The protocol:
Fresh normal human blood is centrifuged at 1,500 g for 15 minutes at room temperature, and the upper fraction containing serum is collected. […] After incubation on ice for 60 min, […] (50 uM) is added to each well in the plate, and the plate is incubated at room temperature for 15 min. The plate is then placed on dry ice with addition of 200 uL/well of 17.3 TCA followed by shaking at 26 fps for 3 min with a plate-shaking machine (Qiagen). The plate is then centrifuged at 2940 g for 20 min at 4° C. […] After further centrifugation at 2940 g for 20 min at 4° C., 200 ul/well of the supernatant is used for analysis of ^13C10-^15N5-adenosine, ^13C10-^15N5-inosine and ^15N5-hypoxanthine by LC/MS as described above. For EC50 calculations, the concentrations of the CD73 inhibitor in the serum are corrected with the fraction unbound (%) derived from in silico models or experimentally.

For assay [3], the target named is T2, human CD73 (Homo sapiens, UniProt P21589).
T2 construct: human CD73 (amino acids 1-547); 6-His (C); made in house; host or cells: HEK293F (transient transfection)
T2 sequence (P21589 27-547): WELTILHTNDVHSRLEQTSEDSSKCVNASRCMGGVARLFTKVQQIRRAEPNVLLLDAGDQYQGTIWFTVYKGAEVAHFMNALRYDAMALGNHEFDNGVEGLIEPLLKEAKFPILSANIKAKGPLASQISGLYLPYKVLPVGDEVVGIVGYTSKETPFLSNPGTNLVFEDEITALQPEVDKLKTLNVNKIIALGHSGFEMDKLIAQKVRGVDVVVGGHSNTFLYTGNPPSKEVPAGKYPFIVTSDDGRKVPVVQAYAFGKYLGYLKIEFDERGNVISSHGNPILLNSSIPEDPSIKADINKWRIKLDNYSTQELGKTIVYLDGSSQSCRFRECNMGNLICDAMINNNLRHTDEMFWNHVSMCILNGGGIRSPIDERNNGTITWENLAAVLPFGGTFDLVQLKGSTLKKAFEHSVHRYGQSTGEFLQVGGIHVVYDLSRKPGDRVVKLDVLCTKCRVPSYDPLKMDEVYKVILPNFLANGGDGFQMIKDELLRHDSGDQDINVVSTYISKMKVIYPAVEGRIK
In words: Human CD73 Mechanism Assay. The format is biochemical. Particulars: varying inhibitor and AMP concentrations 0.023 to 50 μM, mixed-model fit.

Assay [4] addresses T2, human CD73. Nature of the assay: Human CD73 Biochemical Assay. Conditions: 2 μM AMP, 50 pM CD73 protein, 30 minutes at RT.
Description: An Agilent 300 RapidFire automated extraction system (Agilent, Santa Clara, Calif.) is used with three HPLC quaternary pumps, coupled to an Sciex 6500 triple quadrupole mass spectrometer (AB Sciex, Framingham, Mass.) with an electrospray ionization (ESI) interface source.
Solvent A, used for sample loading and washing, is 50 mM ammonium formate, pH 4.0 containing 5% (v/v) ACN. Solvent B, used for sample elution, is 0.3% formic acid+2% ammonium hydroxide in 70% ACN/30% MeOH. Samples are sequentially analyzed by aspirating 10 μL onto the collection loop under vacuum directly from multiwell plates.
Equip the triple quadrupole mass spectrometer with an electrospray ionization (ESI) source and monitor analytes using selected reaction monitoring (SRM) in positive mode (M+H)+. […] Calculate area ratio values for adenosine and adenosine monophosphate using 13C5 Adenosine and 15N5 AMP as internal standards, respectively.
The purpose of this assay is to identify and characterize inhibitors of CD73 enzyme activity. […] Adenosine- and adenosine ribose-^13C5 (internal standard) levels are determined utilizing mass spectrometry as described above. Use signal ratio (adenosine peak integration/adenosine internal standard peak integration) to quantitate each reaction. […] For screening purposes, test each compound at 50 μM in 1% DMSO.
Assay [5] concerns the target T1, CD73. In words: Calu6 Human Cell Assay. The format is cell-based. Conditions: Calu6 cells, 50 μM AMP premix, 60 minutes at room temperature. The protocol:
The purpose of this assay is to test compounds against CD73 in a cell-based assay. […] Plates are incubated at room temperature for 60 minutes.

pEC50, pIC50: −log10 of the molar value.

On to `Nc1ncnc2c1ncn2[C@@H]1O[C@H](COP(=O)(O)CP(=O)(O)O)[C@@H](O)[C@H]1O` [α,β-methyleneadenosine 5′-diphosphate], for which the tumor growth entry in assay [1] is given as “reduce tumor growth”.

`CC[C@H]1C[C@@H]1c1cc(-c2c[nH]c(=O)[nH]c2=O)nnc1C` [Example 1, 5-[5-[(1S,2S)-2-Ethylcyclopropyl]-6-methyl-pyridazin-3-yl]-1H-pyrimidine-2,4-dione]: the pEC50 on CD73 [2] was 7.00. Besides, at human CD73 [3], the “mechanism of action (type of inhibition)” value was “uncompetitive inhibitor”. The pIC50 against human CD73 [4] is 7.37; against CD73 [5], 7.55.
